Experimental findings from ChEMBL document CHEMBL4725294, “Centrally Active Multitarget Anti-Alzheimer Agents Derived from the Antioxidant Lead CR-6” (J Med Chem, 2020) are described below.

The source made the active and inactive calls. The rule behind the calls is not given here.

Series [1] in a line: Drug metabolism in human liver microsomes assessed as N-[8-[(6-chloro-1,2,3,4-tetrahydroacridin-9-yl)amino]octyl]-3-hydroxy-5-(4-methoxy-3,6-dioxo-cyclohexa-1,4-dien-1-yl)-3-methyl-pentanamide formation at 5 uM measured up to 60 mins by UPLC-MS/MS analysis. The class given is ADME, Microsome. Particulars: 1 h.
Series [2] is described as follows: Drug metabolism in rat liver microsomes assessed as 6-chloro-1,2,3,4-tetrahydroacridin-9-amine formation at 5 uM measured up to 60 mins by UPLC-MS/MS analysis. It counts as ADME, Microsome. Particulars: 1 h.
Another series is described as follows: in vitro. Particulars: PAMPA. On the technique in general: The PAMPA barrier holds no transporters, so it reflects passive diffusion.
The test system of series [3] is Mus musculus. As to the kind of experiment: Antialzheimer activity in APP/PS1 double mutant-transgenic C57BL6/J mouse model assessed as increase in Adam10 gene expression at 10 mg/kg/day, ip for 4 weeks followed by compound washout and measured after 24 hrs by qPCR analysis. It counts as functional, organism-based.
Series [4] can be described thus: Drug metabolism in mouse liver microsomes assessed as N-[8-[(6-chloro-1,2,3,4-tetrahydroacridin-9-yl)amino]octyl]-3-hydroxy-5-(4-methoxy-3,6-dioxo-cyclohexa-1,4-dien-1-yl)-3-methyl-pentanamide formation at 5 uM measured up to 60 mins by UPLC-MS/MS analysis. It counts as ADME, Microsome. The settings on record: 1 h. A general note: Liver microsomes are a subcellular fraction often used to study metabolism.

Series [5] has as its system Mus musculus. As to the kind of experiment: Antialzheimer activity in APP/PS1 double mutant-transgenic C57BL6/J mouse model assessed as reduction in Bace1 gene expression at 10 mg/kg/day, ip for 4 weeks followed by compound washout and measured after 24 hrs by qPCR analysis. It counts as functional, organism-based. For orientation: Real-time PCR tracks product formation cycle by cycle.

Series [6] is described as follows: Stability in mouse plasma assessed as parent compound remaining at 10 uM measured after 60 mins by UPLC-MS/MS analysis. Particulars: read-out: Stabilty. The class given is ADME, cell-free.
Series [7] can be described thus: Stability in human plasma assessed as parent compound remaining at 10 uM measured immediately by UPLC-MS/MS analysis. Particulars: read-out: Stabilty. The class given is ADME, cell-free.
Series [8] relates to Mus musculus. As to the kind of experiment: Antialzheimer activity in APP/PS1 double mutant-transgenic C57BL6/J mouse model assessed as increase in Adam10 expression at 10 mg/kg/day, ip for 4 weeks followed by compound washout and measured after 24 hrs by Western blot analysis. It counts as functional, organism-based.
The target in the next series is Acetylcholinesterase (Homo sapiens, UniProt P22303).
Sequence of Acetylcholinesterase (P22303 whole entry): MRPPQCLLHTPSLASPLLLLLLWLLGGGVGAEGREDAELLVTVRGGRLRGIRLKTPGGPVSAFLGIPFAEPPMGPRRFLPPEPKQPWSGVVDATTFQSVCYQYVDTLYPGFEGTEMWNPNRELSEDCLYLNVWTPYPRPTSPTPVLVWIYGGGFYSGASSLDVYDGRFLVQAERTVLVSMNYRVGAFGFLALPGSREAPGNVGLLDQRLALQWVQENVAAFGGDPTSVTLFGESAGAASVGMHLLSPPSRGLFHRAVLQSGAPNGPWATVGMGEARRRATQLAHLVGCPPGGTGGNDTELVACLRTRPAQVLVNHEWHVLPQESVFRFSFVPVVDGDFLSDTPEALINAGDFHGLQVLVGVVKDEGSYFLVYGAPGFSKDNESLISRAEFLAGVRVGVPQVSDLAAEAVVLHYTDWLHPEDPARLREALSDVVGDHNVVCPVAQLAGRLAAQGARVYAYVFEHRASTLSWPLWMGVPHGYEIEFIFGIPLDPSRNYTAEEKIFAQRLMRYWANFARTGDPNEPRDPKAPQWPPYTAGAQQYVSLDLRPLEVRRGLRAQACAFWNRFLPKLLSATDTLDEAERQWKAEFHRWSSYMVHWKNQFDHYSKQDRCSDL
Series [9] is described as follows: Half life in mouse liver microsomes at 5 uM by UPLC-MS/MS analysis. It counts as ADME, Microsome.
Another series addresses Beta-secretase 1 (Homo sapiens, UniProt P56817). As to the kind of experiment: Inhibition human BACE1 expressed in baculovirus expression system at 5 uM using Panvera peptide as substrate measured after 60 mins by fluorescence assay relative to control. The settings on record: 1 h.
Series [10] is described as follows: Stability in rat plasma assessed as parent compound remaining at 10 uM measured after 60 mins by UPLC-MS/MS analysis. It counts as ADME, cell-free. The settings on record: read-out: Stabilty.
A short description of series [11]: Acute toxicity in C57BL6/J mouse assessed as reduction in locomotor activity at 15 mg/kg, ip measured after 5 mins. It counts as organism-based. Particulars: in vivo.
Series [12] in a line: Drug metabolism in human liver microsomes assessed as N-[8-[(6-chloro-1,2,3,4-tetrahydroacridin-9-yl)amino]octyl]-2-(8-methoxy-2-methyl-6,9-dioxo-1-oxaspiro[4.5]dec-7-en-2-yl)acetamide formation at 5 uM measured up to 60 mins by UPLC-MS/MS analysis. It counts as ADME, Microsome. The settings on record: 1 h.
A short description of series [13]: Stability in human liver microsomes assessed as parent compound remaining at 5 uM measured up to 60 mins by UPLC-MS/MS analysis. It counts as ADME, Microsome. Particulars: read-out: Stabilty.
The nature of series [14]: Drug metabolism in rat liver microsomes assessed as N-[8-[(6-chloro-1,2,3,4-tetrahydroacridin-9-yl)amino]octyl]-3-hydroxy-5-(4-methoxy-3,6-dioxo-cyclohexa-1,4-dien-1-yl)-3-methyl-pentanamide formation at 5 uM measured up to 60 mins by UPLC-MS/MS analysis. The settings on record: 1 h. The class given is ADME, Microsome.
The subject of series [15] is Mus musculus. As to the kind of experiment: Antialzheimer activity in APP/PS1 double mutant-transgenic C57BL6/J mouse model assessed as reduction in amyloid beta burden in cortex at 10 mg/kg/day, ip for 4 weeks followed by compound washout and measured after 24 hrs by hematoxylin staining based microscopic analysis. The class given is functional, organism-based.

Sequence of Beta-secretase 1 (P56817 whole entry): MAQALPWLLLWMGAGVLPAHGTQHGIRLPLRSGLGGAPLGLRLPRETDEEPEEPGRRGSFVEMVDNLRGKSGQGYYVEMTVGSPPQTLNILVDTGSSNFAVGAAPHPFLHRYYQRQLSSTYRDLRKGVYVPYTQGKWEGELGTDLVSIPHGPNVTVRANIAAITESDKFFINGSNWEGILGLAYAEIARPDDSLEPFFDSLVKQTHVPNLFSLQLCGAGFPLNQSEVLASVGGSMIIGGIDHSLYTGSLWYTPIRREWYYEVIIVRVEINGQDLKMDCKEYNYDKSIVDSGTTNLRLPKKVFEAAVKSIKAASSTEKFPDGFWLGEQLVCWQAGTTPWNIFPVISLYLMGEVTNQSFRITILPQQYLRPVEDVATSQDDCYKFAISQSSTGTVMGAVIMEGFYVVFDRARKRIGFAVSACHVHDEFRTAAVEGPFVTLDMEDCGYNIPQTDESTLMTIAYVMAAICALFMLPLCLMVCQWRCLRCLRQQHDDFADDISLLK
Description for Acetylcholinesterase: Inhibition of recombinant human AChE expressed in HEK293 cells using acetylthiocholine iodide as substrate preincubated for 15 mins followed by substrate addition by Ellman's method
Description for in vitro: Permeability of compound in PBS/EtOH buffer (7:3) PAMPA-BBB assay

What is called Papp is a coefficient for how fast a substance crosses the barrier. A lower Papp goes with slow passage. By IC50 is commonly meant the concentration that gives 50% inhibition. The low end stands for greater potency, the high end for weaker potency. A word on the half-life: it is the time in which the quantity being followed falls by half. The low end stands for rapid decline, the high end for slow decline. As a reminder, the inhibition is how much of the control response was suppressed. Read a high inhibition as a response far below the control. For `COc1cc2c(cc1O)CCC(C)(CC(=O)NCCCCCCCCNc1c3c(nc4cc(Cl)ccc14)CCCC3)O2` (stereo not drawn), the Drug metabolism result in series [1], in series [2], in series [4], in series [12] and in series [14] was “Metabolite_Detected” in each case. This molecule also had a Papp in “in vitro” of 9.6 ×10⁻⁶ cm/s. In addition, the result with Mus musculus [3], in the series on Mus musculus [8] and in the series with Mus musculus [15] was inactive. Also, the result in the series with Mus musculus [5] was Active. The remaining at 1 h, 10 µM in series [6] and in series [10] was 100% each time. Moreover, the remaining at 0 min, 10 µM in series [7] is 100%. Moreover, the half-inhibitory concentration (IC50) against Acetylcholinesterase amounted to 3.69 nM. The molecule also came in with a half-life at 5 µM in [9] of 50.5 min. Moreover, the inhibition at 5 µM against Beta-secretase 1 came out at 19%. Further, the Activity entry in series [11] was “Toxic”. Also, in [13], the remaining at 1 h, 5 µM came out at 3.6%.
